Where a name gives a salt, the structure may show the parent alone.
Experiments:
α7 nAChR [1] = biological target: T1, α7 nAChR (Homo sapiens, UniProt P36544); experiment: α7 responses on co-application with the type II PAM TQS (silent agonism); format: cell-based; conditions: for α7 functional classification (silent agonist / inactive): inactive alone, active with a PAM = silent agonist
T1 construct: expressed in transfected cells; host or cells: Xenopus laevis oocytes (injected RNA)
Protocol: (§1) Compounds were co-applied at a concentration of 100 µM with 30 µM racemic TQS (Figure 3A). All compounds except S4, S5, and S8 gave large responses when co-applied with TQS, consistent with silent agonism of α7 (see Table S1 for ANOVA). Active compounds were also evaluated across a range of concentrations with the alternative PAM, PNU-120596 (Figure 3B). The curve-fit values for Imax (Table 1) should be taken only as approximation of the relative efficacies of the compounds, due to the large variability frequently observed in PNU-120596-potentiated responses, as evidenced by the large SEMs of the responses obtained with high concentrations.
(§2) Figure 3 Responses of α7 nAChR to sulfonium compounds coapplied with PAMs. (A) Potentiation of α7 responses with 30 µM racemic TQS. Shown are the average net-charge responses of seven or eight oocytes ± SEM. (B) Concentration-response studies of peak currents generated by compounds that gave positive responses with TQS, coapplied with 10 µM PNU-120596. Each point represents the average (±SEM) of at least four oocytes.
The human nAChR clones were obtained from Jon Lindstrom (University of Pennsylvania, Philadelphia, PA, USA). Mouse muscle subunit clones were obtained from Jim Boulter (Salk Institute, La Jolla, CA, USA) and Paul Gardner (Dartmouth, Hanover, NH, USA). The human resistance-to-cholinesterase 3 (RIC3) clone was obtained from Millet Treinin (Hebrew University, Jerusalem, Israel) and co-injected with α7 to improve the level and speed of α7 receptor expression without affecting the pharmacological properties of the receptors. Subsequent to linearization and purification of the plasmid DNAs, RNAs were prepared using the mMessage mMachine in vitro RNA transcription kit (Ambion, Austin, TX, USA).
(§3) Experiments were conducted using OpusXpress 6000A (Molecular Devices, Union City, CA, USA). Both the voltage and current electrodes were filled with 3 M KCl. Oocytes were voltage-clamped at −60 mV at room temperature (24 °C). The oocytes were bath-perfused with Ringer’s solution (115 mM NaCl, 2.5 mM KCl, 1.8 mM CaCl2, 10 mM HEPES, and 1 μM atropine, pH 7.2) at 2 mL/min for α7 receptors, or 4 mL/min for heteromeric nAChR. To evaluate the effects of experimental compounds, responses were compared to control ACh-evoked responses, defined as the average of two initial applications of ACh made before test applications. ACh control concentrations were 60 µM for α7 receptors; 100 µM for α4(3)β2(2) and α3β4 receptors; 30 µM for α4β2α6β2β3 and muscle-type (αβ1εδ) receptors; and 10 µM for α4(3)β2(2) and α4(2)β2(2)α5 receptors.
(§4) Solutions were applied from 96-well plates via disposable tips. Drug applications were 12 s in duration, followed by 181 s washout periods for α7 receptors, or 6 s in duration followed by 301 s washout periods for heteromeric nAChR. The responses were calculated as both peak current amplitudes and net charge, as previously described. Data were collected at 50 Hz, filtered at 20 Hz for α7 receptors or filtered at 5 Hz for heteromeric nAChR, and analyzed by Clampfit (Molecular Devices, San Jose, CA, USA) and Excel (Microsoft, Redmond, WA, USA). Data were expressed as means ± SEM from at least four oocytes for each experiment and plotted with Kaleidagraph 4.5.2 (Abelbeck Software, Reading, PA, USA). Multi-cell averages were calculated for comparisons of complex responses. Averages of the normalized data were calculated for each of the 10,322 points in each of the 206.44 s traces (acquired at 50 Hz), as well as the standard errors for those averages.

α7 nAChR [2] = biological target: T1, α7 nAChR; experiment: α7 concentration-response on co-application with 10 µM PNU-120596; format: cell-based; conditions: peak currents, co-applied with 10 µM PNU-120596, Hill fit; for IMax (PNU Activation): approximation only
Protocol: as §1, §2, §3, §4

pKa by titration = format: physicochemical; conditions: phenolic hydroxyl, data not shown for S9, S10, read-out: pKa
Text: One of the questions that emerges from the data is why aromatic sulfoniums as structurally similar as S5, S9, and S10 provide different responses when coapplied with TQS. Indeed, compounds S5 and S9 virtually overlap in their best docked poses (Supplementary Figure S1), but the α7 response of S9 and TQS was dramatically greater than that of S5 and TQS (p < 0.001, Table S1). The formation of cation–pi interactions is a key feature of the binding of nicotinic orthosteric ligands, and the electronic distribution of the cation can be compared qualitatively in a series of compounds using molecular electrostatic potentials (MEPs). Analysis of the MEPs shown in Figure 9 reveal that the substituents on the benzene ring can modulate the intensity of the positive charge on the sulfonium center. Compound S5, for instance, has two hydroxyl groups which are strongly electron donating, and in comparison to compound S9, which has only one hydroxyl group, the intensity of the positive charge is […]. Another factor may be that a lone pair on the ortho hydroxyl substituent is donating electron density through space to the neighboring sulfonium, redistributing its positive charge. Compound S10 also has an ortho hydroxyl group, but unlike compound S5, compound S10 also has a nitro group, which is a strong electron-withdrawing group that may offset the electron-donating impact of the ortho hydroxyl group. Inspection of the MEP surface shown in Figure 9 does indicate that, relative to S5, the S10 sulfonium bears greater positive electrostatic potential. Given that compounds such as para-nitrophenol are acidic, with a pKa of ~7 for the phenolic hydroxyl, we also considered whether the deprotonated forms of S5, S9, and S10 might be accessible at the pH of our experiments.
Thus, all three compounds have varying proportions of the phenolic OH in the phenoxide form at the pH of Ringers solution used in the experiments. […] Future work on analogs of these compounds may be focused on substituents that are non-ionizable, and thus preserve a positive molecular charge derived from the sulfonium center.

T1 sequence (P36544 23-502): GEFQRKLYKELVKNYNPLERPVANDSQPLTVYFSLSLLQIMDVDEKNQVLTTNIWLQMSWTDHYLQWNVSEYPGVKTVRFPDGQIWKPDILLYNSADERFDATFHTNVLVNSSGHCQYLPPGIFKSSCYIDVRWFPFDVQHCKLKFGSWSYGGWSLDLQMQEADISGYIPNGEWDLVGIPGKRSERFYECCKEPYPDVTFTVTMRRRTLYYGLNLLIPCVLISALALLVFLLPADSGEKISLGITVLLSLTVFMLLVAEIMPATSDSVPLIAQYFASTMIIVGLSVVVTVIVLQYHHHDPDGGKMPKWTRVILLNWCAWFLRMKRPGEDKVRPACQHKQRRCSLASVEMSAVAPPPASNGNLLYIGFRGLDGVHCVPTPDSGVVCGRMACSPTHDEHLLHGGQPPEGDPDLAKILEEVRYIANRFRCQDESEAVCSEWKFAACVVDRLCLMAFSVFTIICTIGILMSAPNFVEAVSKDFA

Row | Structure (SMILES) | response when co-applied with TQS (α7 nAChR [1]; 100 µM compound with 30 µM racemic TQS, net charge) | IMax (PNU Activation) (α7 nAChR [2]) | α7 functional classification (silent agonist / inactive) (α7 nAChR [1]) | EC50 (α7 nAChR [2]; read-out: EC50 (PNU Activation)) | pKa (pKa by titration) | relative activity as α7 silent agonist / desensitizer (rank order) (α7 nAChR [1]; 100 µM with 30 µM TQS, Figure 3A)
1 | C[S+](C)C.[I-] [Compound S1, trimethylsulfonium iodide] | produced potentiated α7 currents | 9.1 ± 0.05 | – | – | – | –
2 | C[S+](C)c1cc([N+](=O)[O-])ccc1O.[Br-] [Compound S10, (2-hydroxy-5-nitrophenyl)dimethylsulfonium bromide] | – | 4.6 ± 0.1 | silent agonist activity | 45.5 ± 50.6 µM | ~5 | –
3 | C[S+](C)c1ccc(O)cc1 [Compound S9, (4-hydroxyphenyl)dimethylsulfonium methyl sulfate] | – | 3.98 ± 0.14 | silent agonist activity | – | ~7.3 | most desensitizing

— publication PMC8464850, “Sulfonium Ligands of the α7 nAChR” (Molecules, 2021)
